Test results published in ChEMBL document CHEMBL4052744, “Diverse heterocyclic scaffolds as dCTP pyrophosphatase 1 inhibitors. Part 1: Triazoles, triazolopyrimidines, triazinoindoles, quinoline hydrazones and arylpiperazines” (Bioorg Med Chem Lett, 2017).

Biological target: T1, dCTP pyrophosphatase 1 (Homo sapiens, UniProt Q9H773)
T1 sequence (Q9H773 whole entry): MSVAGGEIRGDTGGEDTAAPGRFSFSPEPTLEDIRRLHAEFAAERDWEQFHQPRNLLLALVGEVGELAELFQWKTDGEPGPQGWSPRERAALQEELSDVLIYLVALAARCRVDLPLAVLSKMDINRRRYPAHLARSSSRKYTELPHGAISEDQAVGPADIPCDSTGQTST
Experiment: Inhibition of human dCTPase 1

| Compound | IC50 [µM] |
| --- | --- |
| CCNc1cc(N2CCN(C(=O)c3ccc(OC)cc3)CC2)ccc1[N+](=O)[O-] | 1.5 |
| CS(=O)(=O)N1CCN(c2cnn(-c3ccccc3)c(=O)c2Cl)CC1 | 3.2 |
| COc1ccccc1C(=O)N1CCN(c2cnn(-c3ccccc3)c(=O)c2Cl)CC1 | 0.66 |
| CCc1c(C)nc(N2CCN(c3ccc(OC)cc3)CC2)nc1O | 1.1 |
| COc1ccc2c(c1)c1nnc(SCCN3CCOCC3)nc1n2C | 0.55 |
| O=C(c1ccccc1Cl)N1CCN(c2ccc([N+](=O)[O-])c(NC3CC3)c2)CC1 | 1.1 |

The remaining compounds from weak to strong by IC50, led by results:

| IC50 [µM] | Compound |
| --- | --- |
| 1.91 | Cn1c2ccccc2c2nnc(SCCN3CCCCC3)nc21 |
| 1.4 | CCc1c(C)nc(N2CCN(c3cccc(OC)c3)CC2)nc1O |
| 1.2 | CCOc1ccc(C(=O)N2CCN(c3cnn(-c4ccccc4)c(=O)c3Cl)CC2)cc1 |
| 1.1 | CC(C)(C)c1cc(=O)[nH]c(N2CCN(Cc3ccc4c(c3)OCO4)CC2)n1 |
| 0.98 | O=C(c1ccco1)N1CCN(c2nc3ccccc3n3cnnc23)CC1 |
| 0.94 | CCn1c2ccccc2c2nnc(SCCN3CCCCC3)nc21 |
| 0.91 | CCNc1cc(N2CCN(C(=O)c3ccc(CC)cc3)CC2)ccc1[N+](=O)[O-] |
| 0.81 | CCNc1cc(N2CCN(C(=O)c3ccccc3C)CC2)ccc1[N+](=O)[O-] |
